Reference: patent publication US11254904B2, “Culture material and use thereof” (MITSUI CHEMICALS, INC., priority 2019, dated 2022)
Structures can show the parent of a compound that is named as a salt.

Legend:
[1] = Evaluation of drug sorption (drug residual rate); format: physicochemical; conditions: 10 μmol/L drug solution, 0.5 ml per well, 23° C., 2 days; average of three wells
Method: Thereafter, the drug solutions were recovered. The concentrations of the recovered drug solutions were measured by a fluorescence analysis method or LC/MS. The drug residual rate, which was the concentration of the measured recovered drug solution with respect to the concentration of the drug solution before added to the vessel, was calculated. The average value of the drug residual rate in three wells was given. For the drugs 1 to 3 for evaluation, concentration analysis was performed by a fluorescence analysis method. For the drugs 4 to 8 for evaluation, concentration analysis was performed by LC/MS. <Fluorescence Analysis Conditions> • Evaluation apparatus: FP-6600 (spectrofluorometer, manufactured by JASCO Corporation) • Used cell: Micro cell made of quartz • Bandwidth: excitation side: 5 nm, fluorescence side: 6 nm • Sensitivity (PMT voltage): 400 V • Excitation wavelength: rhodamine B 555 nm <LC/MS Conditions> • Apparatus: Acquity UPLC I-class system/TQ-S micro(water) • Ionization method: electrospray ionization (ESI), positive and negative ion detection A drug sorption test was performed on the 24-well TCPS culture vessel (manufactured by Corning Incorporated, made of polystyrene (PS)) used in Comparative Example 4 and the 24-well PDMS culture vessel (product name: […] (trademark) model number: […]

[2] = Evaluation of drug sorption (drug residual rate); format: physicochemical; conditions: 10 μmol/L drug solution, 0.5 ml per well, 23° C., 2 days; average of three wells; remark: listed apart in the source
Method: Thereafter, the drug solutions were recovered. The concentrations of the recovered drug solutions were measured by a fluorescence analysis method or LC/MS. The drug residual rate, which was the concentration of the measured recovered drug solution with respect to the concentration of the drug solution before added to the vessel, was calculated. The average value of the drug residual rate in three wells was given. For the drugs 1 to 3 for evaluation, concentration analysis was performed by a fluorescence analysis method.

drug residual rate, PDMS Vessel (Comparative Example 8) [1] [%]	drug residual rate, PS Vessel (Comparative Example 7) [1] [%]	drug residual rate, 4-methyl-1-pentene Polymer Vessel (Example 11) [2] [%]	Molecule
1	65	63	CC(C)NCC(O)c1ccc(O)c(O)c1 (stereo not drawn) [Isoproterenol Hydrochloride, isoproterenol hydrochloride]
2	70	68	Cc1oncc1C(=O)Nc1ccc(C(F)(F)F)cc1 [Leflunomide, leflunomide]
2	90	98	CCN(CC)c1ccc2c(-c3ccccc3C(=O)O)c3ccc(=[N+](CC)CC)cc-3oc2c1.[Cl-] [Rhodamine B, rhodamine B]
1	67	64	Clc1ccccc1CN1CCc2sccc2C1 [Ticlopidine Hydrochloride, ticlopidine hydrochloride]
58	79	99	rhodamine 123
